One data set concerns the target KDM4A (Homo sapiens, UniProt O75164). Description: biochemical. The class given is biochemical. The text has this:
(§1) To investigate the potential of BNS for selective FIH inhibition, its selectivity was investigated with respect to other 2OG-dependent protein oxidising enzymes, that is PHD2, Jumonji-C domain-containing protein 5 (JMJD5), aspartate/asparagine-β-hydroxylase (AspH) and KDM4A, using reported SPE-MS inhibition assays.[58,61,69,70] In addition to PHD2 and KDM4A, we included AspH and JMJD5 in our selectivity studies, because AspH, like FIH, catalyses protein aspartate- and asparagine-residue hydroxylation (although in epidermal growth factor-like domains),[71,72] and because JMJD5 is structurally closely related to FIH.[73,74]
(§2) 3. Biochemical procedures
(§3) Protein production and purification
(§4) PAGE analysis) according to established procedures.
(§5) FIH, PHD2, AspH, JMJD5 and KDM4A inhibition assays
(§6) The in vitro FIH,1, 2 PHD2,1 AspH,38 JMJD536 and KDM4A39 inhibition assays were performed as […]
(§7) KDM4A). Synthetic peptide substrates were used: HIF-1α C-terminal transactivation domain fragment […]
(§8) H3Lys9 bearing three methyl groups at the N ϵ position, H3Lys4 substituted by an Ala and H3Lys14 substituted by an Ile residue) for KDM4A.39 Peptides were prepared as C-terminal amides by GL Biochem (Shanghai) Ltd. Peptide hydroxylation in the case of FIH, PHD2, AspH and JMJD5 (+16 Da mass shift) or peptide demethylation in the case of KDM4A ( -14 Da mass shift) was monitored by SPE-MS. […]

The target of another data set is JMJD5 (Homo sapiens, UniProt Q8N371). In words: biochemical.
Sequence of JMJD5 (Q8N371 whole entry): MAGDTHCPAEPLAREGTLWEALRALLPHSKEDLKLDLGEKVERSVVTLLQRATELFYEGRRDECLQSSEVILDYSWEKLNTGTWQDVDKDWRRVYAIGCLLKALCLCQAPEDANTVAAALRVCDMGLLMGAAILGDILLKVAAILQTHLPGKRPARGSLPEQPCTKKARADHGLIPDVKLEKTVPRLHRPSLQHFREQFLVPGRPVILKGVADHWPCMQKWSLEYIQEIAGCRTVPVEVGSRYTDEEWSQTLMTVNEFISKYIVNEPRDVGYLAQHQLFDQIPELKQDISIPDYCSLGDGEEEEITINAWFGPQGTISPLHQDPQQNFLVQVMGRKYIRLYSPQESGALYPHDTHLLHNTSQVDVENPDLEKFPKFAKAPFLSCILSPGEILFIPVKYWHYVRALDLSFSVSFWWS
Description: as §1, §2, §3, §4, §5, §6, §7, §8

The target in another data set is AspH (Homo sapiens, UniProt Q12797). In words: biochemical.
Sequence of AspH (Q12797 315-758): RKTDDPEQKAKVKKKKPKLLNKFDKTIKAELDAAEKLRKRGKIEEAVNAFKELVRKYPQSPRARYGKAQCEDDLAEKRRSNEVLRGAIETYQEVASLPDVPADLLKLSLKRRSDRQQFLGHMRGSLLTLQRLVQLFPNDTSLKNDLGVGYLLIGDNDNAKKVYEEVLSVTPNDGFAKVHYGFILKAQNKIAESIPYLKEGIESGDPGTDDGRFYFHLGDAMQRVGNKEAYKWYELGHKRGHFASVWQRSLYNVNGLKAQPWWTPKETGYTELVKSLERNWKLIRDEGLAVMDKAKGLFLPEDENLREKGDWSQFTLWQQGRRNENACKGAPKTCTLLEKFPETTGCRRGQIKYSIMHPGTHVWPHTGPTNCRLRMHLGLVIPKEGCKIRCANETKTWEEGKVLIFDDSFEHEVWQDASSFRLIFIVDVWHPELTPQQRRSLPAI
Description: as §1, §2, §3, §4, §5, §6, §7, §8

In a further data set the target is PHD2 (Homo sapiens, UniProt Q9GZT9). Description: biochemical. On the procedure: as §2, §3, §4, §5, §6, §7, §8
Sequence of PHD2 (Q9GZT9 181-426): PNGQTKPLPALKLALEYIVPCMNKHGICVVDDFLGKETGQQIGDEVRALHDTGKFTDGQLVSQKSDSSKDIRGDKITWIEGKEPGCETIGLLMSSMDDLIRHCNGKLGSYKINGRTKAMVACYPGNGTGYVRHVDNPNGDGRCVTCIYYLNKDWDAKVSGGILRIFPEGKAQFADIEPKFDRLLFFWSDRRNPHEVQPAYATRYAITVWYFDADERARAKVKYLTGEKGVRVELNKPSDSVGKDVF
In the next data set the target is T1, FIH (Homo sapiens, UniProt Q9NWT6).
T1 construct: made in house
T1 sequence (Q9NWT6 whole entry): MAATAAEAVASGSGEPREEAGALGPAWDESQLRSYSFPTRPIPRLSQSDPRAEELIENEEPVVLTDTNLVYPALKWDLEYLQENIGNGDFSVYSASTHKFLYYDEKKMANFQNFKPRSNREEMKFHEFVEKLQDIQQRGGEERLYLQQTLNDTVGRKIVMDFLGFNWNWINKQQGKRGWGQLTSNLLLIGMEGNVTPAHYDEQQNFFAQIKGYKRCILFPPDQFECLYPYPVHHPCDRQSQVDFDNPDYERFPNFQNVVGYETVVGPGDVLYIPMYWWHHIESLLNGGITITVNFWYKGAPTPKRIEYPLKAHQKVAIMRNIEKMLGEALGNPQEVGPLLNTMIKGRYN
Description: SPE-MS FIH inhibition assay. The class given is biochemical. On the procedure: as §3, §4, §5, §6, §7, §8

[1] abbreviates: IC50 comparison with compound 20.

SMILES strings stand for the structures. Read-outs that look alike come from different tables or passages of the source.

The text below walks through data of article PMC10631261 (Chemical Science, 2023).

Sequence of KDM4A (O75164 1-359): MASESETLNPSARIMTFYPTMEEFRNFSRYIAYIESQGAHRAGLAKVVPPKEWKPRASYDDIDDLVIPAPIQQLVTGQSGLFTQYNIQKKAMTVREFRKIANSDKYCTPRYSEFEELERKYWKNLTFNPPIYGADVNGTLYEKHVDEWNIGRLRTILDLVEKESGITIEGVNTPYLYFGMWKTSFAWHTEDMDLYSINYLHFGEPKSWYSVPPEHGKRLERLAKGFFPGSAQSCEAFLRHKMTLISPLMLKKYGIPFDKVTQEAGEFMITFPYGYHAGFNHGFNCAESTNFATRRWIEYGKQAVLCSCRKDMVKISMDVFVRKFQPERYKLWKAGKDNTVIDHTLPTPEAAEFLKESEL

As to `O=C(O)Cc1cs/c(=N\C(=O)C2CCCN2S(=O)(=O)c2ccccc2)n1O` (stereo not shown) (hydrate or solvate) [compound 28], the melting point is > 190 °C (dec.).
The compound `COc1ccc(S(=O)(=O)N2CCC(C(=O)N=c3scc(CC(=O)O)n3O)C2)cc1` (stereo not shown) (hydrate or solvate) [compound 36] returned a melting point of 180 to 183 °C.
Compound `O=C(O)Cc1cs/c(=N\C(=O)CCNS(=O)(=O)c2ccccc2)n1O` (hydrate or solvate) [compound 20] gave a melting point of 178 to 180 °C.
With `CC1(C(=O)/N=c2\scc(CC(=O)O)n2O)CCN(S(=O)(=O)c2ccccc2)C1` (stereo not shown) (hydrate or solvate) [compound 29], the melting point is 158 to 161 °C.
Take `Cc1s/c(=N\C(=O)CS(=O)(=O)c2ccccc2)n(O)c1CC(=O)O` (hydrate or solvate) [compound 7]: the melting point was 181 to 182 °C.
Take `O=C(O)Cc1csc(=NC(=O)C2CCN(S(=O)(=O)C3CCCC3)C2)n1O` (stereo not shown) [compound 43]: the melting point is 177 to 180 °C. This compound returned an IC50 against KDM4A of more than 100 µM. For the same compound, the IC50 at JMJD5 (read-out: JMJD5 IC50) turned out to be 17.4 ± 6 µM. At AspH, this compound showed an IC50 of 35.5 ± 3.2 µM. Further, the IC50 on PHD2 was determined as 9.9 ± 0.5 µM. On FIH, this compound displayed an IC50 of 0.81 ± 0.18 µM.
As to `O=C(O)Cc1csc(=NC(=O)C2CCN(S(=O)(=O)c3cccc(Cl)c3)C2)n1O` (stereo not shown) (hydrate or solvate) [compound 34], the melting point was 178 to 182 °C.
The compound `O=C(O)Cc1cs/c(=N\C(=O)CNC(=O)c2ccccc2)n1O` (hydrate or solvate) [compound 16] returned a melting point of 181 to 183 °C.
Consider `O=C(O)Cc1csc(=NC(=O)C2CCN(S(=O)(=O)c3cccs3)C2)n1O` (stereo not shown) (hydrate or solvate) [compound 41], for which the melting point was 178 to 180 °C.
In the case of `CC1(C(=O)/N=c2\scc(CC(=O)O)n2O)CN(S(=O)(=O)c2ccccc2)C1` [compound 25], the melting point is 156 to 158 °C. The compound further registered an IC50 against KDM4A of more than 100 µM. For the same compound, at JMJD5 (read-out: JMJD5 IC50), the IC50 is 32.6 ± 6.7 µM. This compound gave an IC50 against AspH of more than 100 µM. On PHD2, this compound showed an IC50 of 33.5 ± 1 µM. Besides, half-maximal inhibition at FIH (IC50) was put at 1.2 ± 0.2 µM.
`O=C(O)Cc1cs/c(=N\C(=O)CCS(=O)(=O)c2ccccc2)n1O` (hydrate or solvate) [compound 15] yielded a melting point of 182 to 184 °C.
`O=C(O)Cc1cs/c(=N\C(=O)C2CN(S(=O)(=O)c3ccccc3)C2)n1O` [compound 24] gave a melting point of 170 to 173 °C. On KDM4A, this compound yielded an IC50 of more than 100 µM. Also, the IC50 at JMJD5 (read-out: JMJD5 IC50) was determined as 29.1 ± 4.4 µM. This compound registered an IC50 against AspH of 60.9 ± 24.1 µM. This compound registered an IC50 at PHD2 of 5.2 ± 0.7 µM. The compound further displayed an IC50 against FIH of 0.45 ± 0.17 µM. For the same compound, the “selectivity for FIH inhibition over PHD2 inhibition” value at FIH (as judged by IC50 values) came out at 12 fold.
Compound `O=C(O)Cc1csc(=NC(=O)C2CCN(S(=O)(=O)c3ccc(Cl)cc3)C2)n1O` (stereo not shown) (hydrate or solvate) [compound 35] yielded a melting point of 195 to 197 °C.
`O=C(O)Cc1csc(=NC(=O)C2CCN(S(=O)(=O)c3ccccc3)C2)n1O` (stereo not shown) [compound 26] came in with a melting point of 185 to 187 °C. Besides, on KDM4A, the IC50 is more than 100 µM. Also, the IC50 at JMJD5 (read-out: JMJD5 IC50) is 12.5 ± 1 µM. Besides, half-maximal inhibition against AspH (IC50) was put at 37.8 ± 11.3 µM. Further, the IC50 at PHD2 was 12.4 ± 0.8 µM. Further, at FIH, it took 0.5 ± 0.02 µM to reach half-maximal inhibition (IC50); the “selectivity for FIH with respect to PHD2, JMJD5, AspH and KDM4A inhibition” value is listed as more than 25 fold. In addition, the “increase of FIH inhibition potency relative to 20” value on FIH (setting [1]) is recorded as approximately 2 fold. For the same compound, on FIH (as judged by IC50 values), the “selectivity for FIH inhibition over AspH inhibition” value is listed as approximately 75 fold, the “selectivity for FIH inhibition over JMJD5 inhibition” value was approximately 25 fold and the “selectivity for FIH inhibition over PHD2 inhibition” value is recorded as approximately 25 fold.
In turn, `O=C(O)CCc1cs/c(=N\C(=O)CS(=O)(=O)c2ccccc2)n1O` (hydrate or solvate) [compound 13] returned a melting point of 173 to 176 °C.
For `O=C(O)Cc1cs/c(=N\C(=O)CS(=O)(=O)c2ccccc2)n1O` (hydrate or solvate) [compound 4], the melting point is 179 to 181 °C.
With `O=C(O)Cc1cs/c(=N\C(=O)CCNC(=O)c2ccccc2)n1O` [compound 17], the melting point was in the range of 180 to 183 °C. In addition, on KDM4A, the IC50 was more than 100 µM. At JMJD5, half-maximal inhibition (IC50) required 4.6 ± 1.7 µM. On AspH, this compound yielded an IC50 of 28.3 ± 6.5 µM. On PHD2, this compound came in with an IC50 of 3.6 ± 0.4 µM. Besides, the IC50 at FIH amounted to 4.6 ± 0.7 µM. The “loss in FIH inhibition relative to 20” value on FIH (setting [1]) is recorded as approximately 5 fold.
Regarding `O=C(O)Cc1cs/c(=N\C(=O)CS(=O)(=O)Nc2ccccc2)n1O` [compound 21], the IC50 against KDM4A is more than 100 µM; on JMJD5 (read-out: JMJD5 IC50), 2.8 ± 0.9 µM; at AspH, 0.76 ± 0.1 µM; on PHD2 it was 0.57 ± 0.18 µM; against FIH, 0.36 ± 0.21 µM. For the same compound, the “AspH inhibition potency relative to 4 (more potent)” value at AspH (IC50 comparison with compound 4) is listed as approximately 5 fold.
`O=C(O)Cc1csc(=NC(=O)C2CCN(S(=O)(=O)c3ccc4ccccc4c3)C2)n1O` (stereo not shown) (hydrate or solvate) [compound 40]: the melting point is 181 to 184 °C.
Same read-out and setting: in the case of `CC(C(=O)O)c1cs/c(=N\C(=O)CS(=O)(=O)c2ccccc2)n1O` (stereo not shown) (hydrate or solvate) [compound 6] it was 204 to 207 °C.
For `N#CCc1cs/c(=N\C(=O)CS(=O)(=O)c2ccccc2)n1O` [compound 11], the IC50 against KDM4A, at JMJD5 (read-out: JMJD5 IC50), against AspH, at PHD2 and on FIH was more than 100 µM in each case.
As to `O=C(O)Cc1csc(=NC(=O)C2CCN(S(=O)(=O)c3ccc(C(F)(F)F)cc3)C2)n1O` (stereo not shown) (hydrate or solvate) [compound 37], the melting point fell in the range of 183 to 185 °C.
For `O=C(O)Cc1csc(=NC(=O)C2CCN(S(=O)(=O)c3ccccc3Cl)C2)n1O` (stereo not shown) [compound 33], the half-inhibitory concentration (IC50) against KDM4A was more than 100 µM; at JMJD5 (read-out: JMJD5 IC50) it was 11.9 ± 1.8 µM; against AspH, 30.3 ± 12.6 µM; against PHD2 it was 8 ± 0.2 µM; at FIH, 0.39 ± 0.04 µM.
Take `COC(=O)Cc1cs/c(=N\C(=O)CS(=O)(=O)c2ccccc2)n1O` [compound 9]: the IC50 was more than 100 µM against KDM4A; more than 100 µM at JMJD5 (read-out: JMJD5 IC50); 96.7 ± 3.2 µM at AspH; more than 100 µM at PHD2; more than 100 µM on FIH.
For `O=C(CS(=O)(=O)c1ccccc1)/N=c1\scc(Cn2ccnn2)n1O` [compound 12], the IC50 on KDM4A is more than 100 µM; on JMJD5 (read-out: JMJD5 IC50), more than 100 µM; against AspH, 83.3 ± 6.7 µM; on PHD2, more than 100 µM; against FIH, more than 100 µM.
On to `O=C(O)Cc1cs/c(=N\C(=O)CNS(=O)(=O)c2ccccc2)n1O` [compound 19], for which the melting point lay within 178 to 180 °C. Moreover, the IC50 against KDM4A amounted to 17.4 ± 0.2 µM. The IC50 on JMJD5 (read-out: JMJD5 IC50) turned out to be 12 ± 0.6 µM. The compound further had an IC50 at AspH of 3.1 ± 0.4 µM. Further, the IC50 against PHD2 came out at 15.5 ± 4.6 µM. At FIH, this compound gave an IC50 of 3.7 ± 1.5 µM. Moreover, the “loss in FIH inhibition relative to 20” value on FIH (setting [1]) was approximately 4 fold.
